According to patent US12472259B2, “PKC inhibitors for the treatment of septic cholestasis with polymethine dye targeting” (SMARTDYELIVERY GMBH, priority 2018, dated 2025):

How the values were obtained:
[1] = tested on: male C57/BL6 mice, PCI model; assay: Survival rate in cholestasis model under septic conditions, peritoneal contamination and infection (PCI); assay type: in vivo; settings: 4 mg/kg body weight
Protocol: In order to mimic the septic cholestasis, a systemic inflammation was induced using the well-established peritoneal contamination and infection (PCI) model. In this model, a human faeces suspension is applied intraperitoneally (i.p.) and rapidly triggers sepsis with liver dysfunction.
For each batch of human stool, the dose is titrated carefully for a survival between 0% and 20% within two weeks.
To find the adequate dose of stool, different doses were tested. 6 h after i.p. application of the stool, 8-12 weeks old C57/BL6 mice or FVB/N mice were treated with the nanoparticles or the free drug respectively.
A systemic infection/sepsis with organ failure was induced in male C57/BL6 mice by using the PCI model. For this purpose, a human fecal suspension (2.5 μl/g BW for stool batch1 and 6 μl/g for stool batch 2, respectively) was injected intraperitoneally (without anesthesia) with weight adaptation, thus triggering peritonitis with subsequent systemic infection. […] The animals were closely monitored and scored every 6 hours for signs of infection in order to timely. […] With the evaluated dose of 6 μl/g BW stool and additional antibiotic therapy, all mice died within three days, as shown in the Kaplan-Meier-Schatzer diagram (FIG. 11, right panel). […]

[2] = during idelalisib; cited from earlier work
[3] = cited from earlier work

O=C1NC(=O)/C(=C\c2ccc3nccnc3c2)S1 [AS605240]
activity of the free drug alone (dose evaluation, survival) [1]: active

CN(C)CCCn1cc(C2=C(c3c[nH]c4ccccc34)C(=O)NC2=O)c2ccccc21 [BIM-1]
activity of the free drug alone (dose evaluation, survival) [1]: active

CC[C@H](Nc1ncnc2[nH]cnc12)c1nc2cccc(F)c2c(=O)n1-c1ccccc1 [idelalisib]
risk of developing sepsis as adverse effect compared to placebo [2]: five-fold higher risk

CO[C@@H]1[C@H](N(C)C(=O)c2ccccc2)C[C@H]2O[C@]1(C)n1c3ccccc3c3c4c(c5c6ccccc6n2c5c31)C(=O)NC4 [midostaurin]
On-treatment death unrelated to the underlying malignancy ([3]; 16 patients, most commonly from infection (sepsis or pneumonia)): 11%
Grade≥3 adverse reactions (fatigue, sepsis, gastrointestinal hemorrhage, pneumonia, diarrhea, febrile neutropenia) reported in ([3]; patients on midostaurin): ≥ 5%
Serious adverse reactions most commonly due to infections and gastrointestinal disorders ([3]; patients on midostaurin): 20%
Serious adverse reactions reported ([3]; patients on midostaurin): 68 % of patients
Treatment discontinuation due to adverse reaction ([3]; patients on midostaurin): 21 % of patients
